# Results reported in PMC11642044 (International Journal of Molecular Sciences, 2024).
# Read-outs that look alike come from different tables or passages of the source. Where a SMILES comes first, the peptide text is derived from it.
# Key:
# [1] = system: primary astrocytes; assay: LIF secretion (ELISA), primary astrocytes; assay type: cell-based, mouse
# Experimental: HEK293, U87-MG, 1321N1, SK-N-SH, and SK-N-MC cells were cultured in MEM supplemented with 10% (vol/vol) fetal bovine serum (FBS), 50 U/mL penicillin, and 50 μg/mL streptomycin. Primary astrocyte cultures were prepared from the cerebral cortexes of neonatal mice (P2). The cerebral hemispheres were isolated and transferred to ice-cold Hank’s buffer, and the meninges were carefully removed. Tissues were then minced into approximately 1 mm pieces, triturated, filtered through a 60 µm nylon screen, and collected by centrifugation at approximately 3000× g for 5 min. The cell pellets were dispersed with a pipette and resuspended in a medium containing 10% (vol/vol) FBS in low-glucose Dulbecco’s modified Eagle’s medium. After trituration, the cells were filtered through a 10 µm screen and then plated into 6-well plates at a density of 3 × 10^5 cells/mL and cultured for about 10 days. The medium was replaced twice per week. Dibutyryl cyclic adenosine monophosphate (DBcAMP; 0.15 mM, Sigma, St Louis, MO, USA) was added to induce differentiation when the cells were grown to 95% confluence. […]
# Conditioned media were analyzed for the presence of multiple cytokines by using the cytokine multiplex assay kits (Merck Millipore, MA, USA) as previously described. […] The detection beads were then washed again and resuspended in 120 μL of reading buffer. […]
# [2] = system: U87-MG cells; assay: Intracellular Ca2+ mobilization by Gq-coupled receptor agonists (FLIPR, Fluo-4), U87-MG; assay type: cell-based, human
# Experimental: (§1) Cells were seeded in 96-well plates (clear bottom and black wall) at 2.5 × 10^4 cells per well on the day before assay. The cells (~80–100% confluence) were then washed with Hank’s balanced salt solution (HBSS) and aspirated, followed by addition of 100 μL of FLIPR labeling dye (containing Fluo-4 and probenecid in HBSS) to each well before incubation at 37 °C for 1 h. Finally, the 96-well plate containing the labeled cells was transferred to the FLIPR (Molecular Devices, San Jose, CA, USA), and 50 μL of HBSS (with or without agonists) was added to each well. The fluorescent signals that reflect the intracellular Ca^2+ transients were monitored by an excitation wavelength of 488 nm, and detection was undertaken with an emission wavelength from 510 to 570 nm for 3 min upon the drug treatments, as described previously.
# [3] = system: 1321-N1 cells; assay: Intracellular Ca2+ mobilization by Gq-coupled receptor agonists (FLIPR, Fluo-4), 1321-N1; assay type: cell-based, human
# Experimental: as §1
# [4] = system: primary astrocytes; assay: Intracellular Ca2+ mobilization by Gq-coupled receptor agonists (FLIPR, Fluo-4), primary cortical astrocytes; assay type: cell-based, mouse; conditions: 10 μM agonist, n = 4
# Experimental: HEK293, U87-MG, 1321N1, SK-N-SH, and SK-N-MC cells were cultured in MEM supplemented with 10% (vol/vol) fetal bovine serum (FBS), 50 U/mL penicillin, and 50 μg/mL streptomycin. Primary astrocyte cultures were prepared from the cerebral cortexes of neonatal mice (P2). The cerebral hemispheres were isolated and transferred to ice-cold Hank’s buffer, and the meninges were carefully removed. Tissues were then minced into approximately 1 mm pieces, triturated, filtered through a 60 µm nylon screen, and collected by centrifugation at approximately 3000× g for 5 min. The cell pellets were dispersed with a pipette and resuspended in a medium containing 10% (vol/vol) FBS in low-glucose Dulbecco’s modified Eagle’s medium. After trituration, the cells were filtered through a 10 µm screen and then plated into 6-well plates at a density of 3 × 10^5 cells/mL and cultured for about 10 days. The medium was replaced twice per week. Dibutyryl cyclic adenosine monophosphate (DBcAMP; 0.15 mM, Sigma, St Louis, MO, USA) was added to induce differentiation when the cells were grown to 95% confluence. Primary mouse cortical neuronal cultures were obtained from E16 ICR mouse embryos. Briefly, cerebral cortices were removed from mouse embryos and mechanically dissociated in PBS with glucose (18 mM). Neurons were then seeded onto poly-L-lysine (1 mg/mL)-coated 96-well plates at 5 × 10^4 cells/well in a B27 Plus Neuronal culture system (Thermo Fisher Scientific), supplemented with 2 mM glutamine, 5 μM mercaptoethanol, 100 U/mL penicillin and 100 μg/mL streptomycin. The cultured neurons were maintained in a humidified incubator at 37 °C with 5% CO2 for 7 days prior to use.
# as §1
# [5] = system: U87-MG cells; assay: LIF production into conditioned media (ELISA), U87-MG; assay type: cell-based, human
# [6] = system: STAT3 in SK-N-MC cells; assay: STAT3 Tyr705 phosphorylation in SK-N-MC by conditioned media from agonist-treated U87-MG; assay type: cell-based, human
# Experimental: (§2) These conditioned media were either immediately applied to SK-N-SH/SK-N-MC cells (80–100% confluence) in 6-well plates for 15 min, or subjected to heat treatment on a 96 °C heat block for 5 min, and then cooled to 37 °C before they were applied to the SK-N-SH/SK-N-MC cells for 15 min. […] For the SK-N-MC-derived conditioned media, SK-N-MC cells (80–100% confluence) in a 10 cm culture dish were serum-starved in 10 mL of MEM (without FBS), with 1 mL of the resulting conditioned medium being collected at indicated time points (15 min, 1 h, 3 h, 6 h). Simultaneously, U87-MG cells (80–100% confluence) in 12-well plates were serum-starved in MEM for 6 h, followed by pretreatment of […] (5 μM, 15 min), and then challenged with the SK-N-MC-derived conditioned media (mentioned above) for 10 min before cell lysis. […]
# (§3) SDS-PAGE and Western blotting were performed as described in our previous studies. […] The amount of protein in each sample was determined by detergent compatible (DC) protein assay according to the supplier’s instruction (Bio-Rad, Hercules, CA, USA). […] Resolved proteins were detected by specific primary antibodies and horseradish peroxidase-conjugated secondary antisera. The level of β-actin was determined as an internal control.
# [7] = system: ERK in SK-N-MC cells; assay type: cell-based, human
# Experimental: as §2, §3
# [8] = system: ERK in SK-N-SH cells; assay type: cell-based, human
# Experimental: as §2, §3
# [9] = system: STAT3 in SK-N-MC cells; assay: STAT3 phosphorylation by direct application of cytokine, SK-N-MC; assay type: cell-based, human; conditions: LIF 0–100 ng/mL, 15 min
# Experimental: (§4) To determine if the experimental cells were readily responsive to LIF and IL-6, SK-N-MC cells, mouse primary neurons and primary astrocytes (80–100% confluence in 12-well plates) were serum-starved for 6 h, followed by treatment of indicated concentrations (0–100 ng/mL) of LIF and IL-6 for 15 min. The subsequent cell lysates were subjected to SDS-PAGE and Western blot with specific antibodies to detect stimulatory phosphorylated forms and the total amounts of STAT3.
# as §3, with “control. […] Chemiluminescence signals were then detected by ChemiDoc imaging systems (Bio-Rad, Hercules, CA, USA) with the subsequent band densities quantified by ImageJ (https://imagej.net/ij/) analysis software (National Institutes of Health, MD, USA). […]” for “control.”
# [10] = system: STAT3 in primary mouse cortical neurons; assay: STAT3 phosphorylation by direct application of cytokine, primary cortical neurons; assay type: cell-based; conditions: 0–100 ng/mL, 15 min
# Experimental: as §4
# as §3, with “control. […] Chemiluminescence signals were then detected by ChemiDoc imaging systems (Bio-Rad, Hercules, CA, USA) with the subsequent band densities quantified by ImageJ (https://imagej.net/ij/) analysis software (National Institutes of Health, MD, USA). […]” for “control.”
# [11] = system: STAT3 in primary mouse astrocytes; assay: STAT3 phosphorylation by direct application of cytokine, primary astrocytes; assay type: cell-based; conditions: 0–100 ng/mL, 15 min
# Experimental: as §4
# SDS-PAGE and Western blotting were performed as described in our previous studies. In brief, cells in 6-well plates (5 × 10^5 cells/well) were lysed in 500 μL of ice-cold lysis buffer (50 mM Tris-HCl at pH 7.5 containing 100 mM NaCl, 5 mM EDTA, 40 mM NaP2O7, 1% Triton X-100, 1 mM dithiothreitol, 200 μM Na3VO4, 100 μM phenylmethylsulfonyl fluoride, 2 μg/mL leupeptin, 4 μg/mL aprotinin, and 0.7 μg/mL pepstatin) and then gently shaken for 30 min. The amount of protein in each sample was determined by detergent compatible (DC) protein assay according to the supplier’s instruction (Bio-Rad, Hercules, CA, USA). Clarified lysates (30 μg protein per sample) were resolved on 12% SDS-polyacrylamide gels and then transferred to nitrocellulose membranes (Westborough, MA, USA). Resolved proteins were detected by specific primary antibodies and horseradish peroxidase-conjugated secondary antisera. The level of β-actin was determined as an internal control. Immunoblots were visualized by chemiluminescence with the WesternBright ECL reagents from Advansta (San Jose, CA, USA). Chemiluminescence signals were then detected by ChemiDoc imaging systems (Bio-Rad, Hercules, CA, USA) with the subsequent band densities quantified by ImageJ (https://imagej.net/ij/) analysis software (National Institutes of Health, MD, USA). All primary antibodies which specifically recognize B1R, B2R, ERK, p-ERK, p38, p-p38, JNK, p-JNK, STAT3, p-STAT3, and β-actin were applied at 1:1000 dilution for Western blotting.
# [12] = system: STAT3 in U87-MG cells; assay: STAT3 phosphorylation by direct application of cytokine, U87-MG; assay type: cell-based, human
compound,measurement,setting,value
N=C(N)NCCC[C@H](NC(=O)[C@H](Cc1ccccc1)NC(=O)[C@@H]1CCCN1C(=O)[C@H](CO)NC(=O)[C@H](Cc1ccccc1)NC(=O)CNC(=O)[C@@H]1CCCN1C(=O)[C@@H]1CCCN1C(=O)[C@@H](N)CCCNC(=N)N)C(=O)O [bradykinin] (H-RPPGFSPFR-OH),EC50,[1],23 nM
C[N+](C)(C)CCOC(N)=O [carbachol],intracellular Ca2+ response,"[2]; 10 μM agonist, U87-MG, FLIPR, Fluo-4, 3 min, n = 3",lack of a carbachol-stimulated Ca^2+ response
same,"Ca2+ response, fold stimulation","[3]; 10 μM agonist, 1321-N1, FLIPR",over 100 fold
same,intracellular Ca2+ response,"[3]; 10 μM agonist, 1321-N1, FLIPR, Fluo-4, 3 min, n = 3",elicited Ca^2+ responses in 1321-N1 cells
same,intracellular Ca2+ mobilization,[4],significantly stimulated Ca^2+ mobilization
same,LIF production,"[5]; 10 μM agonist, 24 h, U87-MG, ELISA, n = 3",failed to induce the production of LIF
NCCc1c[nH]cn1 [histamine],"Ca2+ response, fold stimulation",[2],over 100 fold
same,intracellular Ca2+ response,[2],significantly stimulated intracellular Ca^2+ responses
same,"Ca2+ response, fold stimulation",[3],over 100 fold
same,intracellular Ca2+ response,[3],significantly stimulated intracellular Ca^2+ responses
same,LIF production,[5],significantly elevated the levels of LIF
same,STAT3 Tyr705 phosphorylation by conditioned media,[6],stimulated STAT3 Tyr^705 phosphorylation
same,ERK phosphorylation by conditioned media,[7],little or no change in ERK phosphorylation
same,ERK phosphorylation by conditioned media,[8],little or no change in ERK phosphorylation
leukemia inhibitory factor [LIF],STAT3 phosphorylation,[9],dose-dependent manner
same,STAT3 phosphorylation,[10],dose-dependently stimulated STAT3 phosphorylation
same,STAT3 response compared with IL-6,[10],apparently stronger than that induced by IL-6
same,potency in STAT3 phosphorylation compared with IL-6,[11],even more potent than IL-6
same,STAT3 phosphorylation,[11]; n = 3,readily stimulated by LIF in a dose-dependent manner
same,STAT3 phosphorylation,[12],readily stimulated by LIF in a dose-dependent manner
